Laboratory results published in patent publication US20040110763A1, “Pyrazolopyridine compound and pharmaceutical use thereof” (priority 2000, published 2004).

Tests used:
human A2a receptor = human A2a receptor (Homo sapiens, UniProt P29274); assay: Adenosine antagonistic activity, radioligand binding, A2a receptor; conditions: [3H]CGS 21680 20 nM
Experimental: (§1) Test 1: Adenosine Antagonistic Activity
(§2) The adenosine antagonistic activity [Ki(nM)] of the test compound was examined by radioligand binding techniques using 8-cyclopentyl-1,3-dipropylxanthine, [dipropyl-2,3-^3H(N)] ([^3H]DPCPX, 4.5 nM) for human A1 receptor and [^3H]CGS 21680 (20 nM) for human A2a receptor.

ddY mice = assay: Anticatalepsy activity in mouse (haloperidol-induced catalepsy); format: in vivo; conditions: 3.2 mg/kg orally, ddY mice n=7; haloperidol 0.32 mg/kg i.p. 30 min after compound; measured 30 min after injection, bar test up to 30 sec
Experimental: Test 2: Anticatalepsy Activity in Mouse
The test compound (3.2 mg/kg) was administered orally with ddY mice (n=7). Then, haloperidol (0.32 mg/kg) was injected intraperitoneally 30 min. after the administration of the compound. Thirty min. after the injection, the cataleptic responses of mice were measured. The forelimbs of each mouse were placed on a 3 cm high, 3 mm wide horizontal bar, and the duration of cataleptic posture was measured for up to 30 sec.

human A1 receptor = target: T1, human A1 receptor (Homo sapiens, UniProt P30542); assay: Adenosine antagonistic activity, radioligand binding, A1 receptor; conditions: [3H]DPCPX 4.5 nM
T1 sequence (P30542 1-326): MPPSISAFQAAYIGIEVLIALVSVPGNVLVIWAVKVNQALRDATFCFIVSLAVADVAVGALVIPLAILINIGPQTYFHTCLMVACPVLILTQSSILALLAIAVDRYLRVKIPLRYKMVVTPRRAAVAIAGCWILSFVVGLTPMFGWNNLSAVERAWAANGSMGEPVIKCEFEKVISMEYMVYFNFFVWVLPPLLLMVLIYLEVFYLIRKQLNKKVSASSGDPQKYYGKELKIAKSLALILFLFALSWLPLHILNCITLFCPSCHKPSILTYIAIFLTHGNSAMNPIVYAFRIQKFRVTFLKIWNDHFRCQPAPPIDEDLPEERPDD
Experimental: as §1, §2

human A2a receptor, sequence (P29274 whole entry): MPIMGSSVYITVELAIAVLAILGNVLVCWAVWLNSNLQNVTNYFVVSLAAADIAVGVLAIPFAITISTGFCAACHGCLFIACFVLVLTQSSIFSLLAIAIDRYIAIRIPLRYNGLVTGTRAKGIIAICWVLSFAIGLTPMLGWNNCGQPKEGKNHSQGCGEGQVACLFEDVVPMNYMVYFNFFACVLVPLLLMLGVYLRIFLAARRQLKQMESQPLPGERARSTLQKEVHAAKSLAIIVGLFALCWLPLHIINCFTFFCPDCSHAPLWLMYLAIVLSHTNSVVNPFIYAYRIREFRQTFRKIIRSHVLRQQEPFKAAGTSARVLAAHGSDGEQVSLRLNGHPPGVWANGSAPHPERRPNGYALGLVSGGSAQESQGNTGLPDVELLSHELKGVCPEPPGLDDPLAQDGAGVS

Row | SMILES | Ki (human A2a receptor) [nM] | melting point [°C] | Ki (human A1 receptor) [nM] | Manifestation rate of catalepsy (number of mouse) (ddY mice)
1 | CC(C)n1nc(-c2c(-c3ccccc3)nn3ccc(OCCN(C)C)cc23)ccc1=O [Example 4, 5-(2-Dimethylamino)ethoxy-3-(3-oxo-2-isopropyl-2,3-dihydropyridazin-6-yl)-2-phenylpyrazolo[1,5-a]pyridine] | 2.35 | 138 to 139 | 0.98 | 0/7
2 | CC(C)n1nc(-c2c(-c3ccccc3)nn3ccc(O)cc23)ccc1=O [Example 3, 5-Hydroxy-3-(3-oxo-2-isopropyl-2,3-dihydropyridazin-6-yl)-2-phenylpyrazolo[1,5-a]pyridine] | 1.05 | > 250 | 0.14 | 
3 | CC(C)n1nc(-c2c(-c3ccccc3)nn3ccc(C(=O)N(C)C)cc23)ccc1=O [Example 72, N,N-dimethyl-3-(3-oxo-2-isopropyl-2,3-dihydropyridazin-6-yl)-2-phenylpyrazolo[1,5-a]pyridine-5-carboxamide] | 1.68 |  | 0.25 | 0/7
4 | CC(C)n1nc(-c2c(-c3ccccc3)nn3ccc(N4CCN(C)CC4)cc23)ccc1=O [Example 96, 5-(4-methyl-1-piperazinyl)-3-(3-oxo-2-isopropyl-2,3-dihydropyridazin-6-yl)-2-phenylpyrazolo[1,5-a]pyridine] | 1.28 | 170 to 171 | 0.24 | 0/7
5 | COCCNC(=O)COc1ccn2nc(-c3ccccc3)c(-c3ccc(=O)n(C(C)C)n3)c2c1 [Example 66, N-(2-Methoxyethyl)-2-[{3-(3-oxo-2-isopropyl-2,3-dihydropyridazin-6-yl)-2-phenylpyrazolo[1,5-a]pyridin-5-yl}oxy]acetamide] |  | 144.5 to 145.5 |  | 
6 | CC(C)n1nc(-c2c(-c3ccccc3)nn3ccc(OCC(=O)OCc4ccccc4)cc23)ccc1=O [Example 32, Benzyl {[3-(3-oxo-2-isopropyl-2,3-dihydropyridazin-6-yl)-2-phenylpyrazolo[1,5-a]pyridin-5-yl]oxy}acetate] |  | 174 to 174.5 |  | 
7 | CC(C)n1nc(-c2c(-c3ccccc3)nn3ccc(C(=O)NCc4cccnc4)cc23)ccc1=O [Example 87, N-(3-Pyridinylmethyl)-3-(3-oxo-2-isopropyl-2,3-dihydropyridazin-6-yl)-2-phenylpyrazolo[1,5-a]pyridine-5-carboxamide] |  | 192 to 193 |  | 
8 | COc1ccn2nc(-c3ccccc3)c(-c3ccc(=O)n(C(C)C)n3)c2c1 [Example 2, 5-Methoxy-3-(3-oxo-2-isopropyl-2,3-dihydropyridazin-6-yl)-2-phenylpyrazolo[1,5-a]pyridine] | 1.38 | 180.5 to 181.5 | 0.15 | 0/7
9 | CC(C)n1nc(-c2c(-c3ccccc3)nn3ccc(OCCN4CCCC4)cc23)ccc1=O [Example 17, 5-[2-(1-Pyrrolidinyl)ethoxy]-3-(3-oxo-2-isopropyl-2,3-dihydropyridazin-6-yl)-2-phenylpyrazolo[1,5-a]pyridine] |  | 149 to 150 |  | 
10 | CC(C)n1nc(-c2c(-c3ccccc3)nn3ccc(Oc4ccccn4)cc23)ccc1=O [Example 31, 5-(2-pyridinyloxy)-3-(3-oxo-2-isopropyl-2,3-dihydropyridazin-6-yl)-2-phenylpyrazolo[1,5-a]pyridine] | 1.44 | 140.5 to 141.5 | 0.42 | 0/7
11 | CC(C)n1nc(-c2c(-c3ccccc3)nn3ccc(OCCN4C[C@@H](C)O[C@@H](C)C4)cc23)ccc1=O [Example 24, 5-[2-{(2R,6S)-2,6-Dimethyl-4-morpholinyl}ethoxy]-3-(3-oxo-2-isopropyl-2,3-dihydropyridazin-6-yl)-2-phenylpyrazolo[1,5-a]pyridine] |  | 157.5 to 158 |  | 
12 | CC(C)n1nc(-c2c(-c3ccccc3)nn3ccc(OCCN4CCOCC4)cc23)ccc1=O [Example 6, 5-[2-(4-morpholinyl)ethoxy]-3-(3-oxo-2-isopropyl-2,3-dihydropyridazin-6-yl)-2-phenylpyrazolo[1,5-a]pyridine] |  | 160 to 162 |  | 
13 | CCN(CC)C(=O)COc1ccn2nc(-c3ccccc3)c(-c3ccc(=O)n(C(C)C)n3)c2c1 [Example 41, N,N-Diethyl-2-{[3-(3-oxo-2-isopropyl-2,3-dihydropyridazin-6-yl)-2-phenylpyrazolo[1,5-a]pyridin-5-yl]oxy}acetamide] |  | 125 to 126.5 |  | 

Now from value to molecule, other results behind:

Row | Ki (human A2a receptor) [nM] | melting point [°C] | Ki (human A1 receptor) [nM] | SMILES | Manifestation rate of catalepsy (number of mouse) (ddY mice)
14 |  | 183 to 184 |  | COc1ccn2nc(-c3ccccc3)c(-c3ccc(=O)n(C)n3)c2c1 [Example 115, 5-Methoxy-3-(3-oxo-2-methyl-2,3-dihydropyridazin-6-yl)-2-phenylpyrazolo[1,5-a]pyridine] | 
15 |  | 239 to 240 |  | CC(C)n1nc(-c2c(-c3ccccc3)nn3ccc(C(=O)NC4CCCCCC4)cc23)ccc1=O [Example 140, N-Cycloheptyl-3-(3-oxo-2-isopropyl-2,3-dihydropyridazin-6-yl)-2-phenylpyrazolo[1,5-a]pyridine-5-carboxamide] | 
16 |  | 184 to 185 |  | CC(C)n1nc(-c2c(-c3ccccc3)nn3ccc(C(=O)NC4CC4)cc23)ccc1=O [Example 139, N-cyclopropyl-3-(3-oxo-2-isopropyl-2,3-dihydropyridazin-6-yl)-2-phenylpyrazolo[1,5-a]pyridine-5-carboxamide] | 
17 |  | 205 to 206 |  | COc1ccn2nc(-c3ccccc3)c(-c3ccc(=O)n(C(C)C)n3)c2c1Br [Example 135, 4-bromo-5-methoxy-3-(3-oxo-2-isopropyl-2,3-dihydropyridazin-6-yl)-2-phenylpyrazolo[1,5-a]pyridine] | 
18 |  | 190 to 191 |  | CCCn1nc(-c2c(-c3ccc(F)cc3)nn3ccc(OC)cc23)ccc1=O [Example 132, 5-Methoxy-3-(3-oxo-2-propyl-2,3-dihydropyridazin-6-yl)-2-(4-fluorophenyl)pyrazolo[1,5-a]pyridine] | 
19 |  | 219 to 220 |  | CC(C)n1nc(-c2c(-c3ccccc3)nn3ccc(N4CCN(S(=O)(=O)c5ccccc5)CC4)cc23)ccc1=O [Example 111, 5-[4-(Phenylsulfonyl)-1-piperazinyl]-3-(3-oxo-2-isopropyl-2,3-dihydropyridazin-6-yl)-2-phenylpyrazolo[1,5-a]pyridine] | 
20 | 1.03 | 208 to 210 | 0.48 | CC(C)n1nc(-c2c(-c3ccccc3)nn3ccc(NC(=O)OC(C)(C)C)cc23)ccc1=O [Example 145, tert-butyl 3-(3-oxo-2-isopropyl-2,3-dihydropyridazin-6-yl)-2-phenylpyrazolo[1,5-a]pyridin-5-ylcarbamate] | 0/7
21 |  | 157 to 159 |  | Nc1cccc2c(-c3ccc(=O)[nH]n3)c(-c3ccccc3)nn12 [Example 133, 7-amino-3-(3-oxo-2,3-dihydropyridazin-6-yl)-2-phenylpyrazolo[1,5-a]pyridine] | 
22 |  | 174 to 175 |  | COc1ccn2nc(-c3ccccc3F)c(-c3ccc(=O)n(C(C)C)n3)c2c1 [Example 127, 5-Methoxy-3-(3-oxo-2-isopropyl-2,3-dihydropyridazin-6-yl)-2-(2-fluorophenyl)pyrazolo[1,5-a]pyridine] | 
